Key:
NK1 = biological target: T1, NK1 (Oryctolagus cuniculus, UniProt G1SEI7); assay: Rabbit Pulmonary Artery: NK1 In Vitro Functional Assay (Test C); assay type: cell-based; conditions: agonist ASMSP
T1 construct: The pulmonary arteries are isolated from the rest of the tissues and cut in half to serve as pairs; from tissue; host or cells: rabbit pulmonary artery rings, endothelium intact
Experimental: Rabbit Pulmonary Artery: NK1 In Vitro Functional Assay (Test C)
The ability of a Compound of the invention to antagonize the action of the agonist Ac-[Arg^6, Sar^9, Met(O2)^11]
Male New Zealand white rabbits are euthanized via i.v. injection into an ear vein with 60 mg/kg Nembutal (50 mg/mL). Preceding the Nembutal into the vein is Heparin (1000 units/mL) at 0.0025 ml/kg for anticoagulant purposes. The chest cavity is opened from the top of the rib cage to the sternum and the heart, lungs and part of the trachea are removed. The pulmonary arteries are isolated from the rest of the tissues and cut in half to serve as pairs.
The segments are suspended between stainless steel stirrups, so as not to remove any of the endothelium, and placed in water-jacketed (37° C.) tissue baths containing physiological salt solution of the following composition (mM): NaCl, 118.0; KCl, 4.7; CaCl2, 1.8; MgCl2, 0.54; NaH2PO4, 1.0; NaHCO3, 25.0; glucose, 11.0; indomethacin, 0.005(to inhibit cyclooxygenase); and dl-Propranolol, 0.00l(to block β receptors); gassed continuously with 95% O2-5% CO2. Responses are measured on a Grass polygraph via Grass FT-03 transducers and the electrical signals (data) acquired using a Mi^2 software/hardware system for subsequent conversion to measures of relaxation. […]

NK2 = biological target: T2, NK2 (Oryctolagus cuniculus, UniProt P79218); assay: Rabbit Pulmonary Artery: NK2 In Vitro Functional Assay (Test D); assay type: cell-based; conditions: agonist BANK; -log molar KB; read-out: Rabbit Pulmonary Artery NK2 pKb (Test D) (converted)
T2 construct: The pulmonary arteries are isolated from the rest of the tissues, then rubbed over an intimal surface to remove the endothelium; from tissue; host or cells: rabbit pulmonary artery rings, endothelium removed
T2 sequence (P79218 1-384): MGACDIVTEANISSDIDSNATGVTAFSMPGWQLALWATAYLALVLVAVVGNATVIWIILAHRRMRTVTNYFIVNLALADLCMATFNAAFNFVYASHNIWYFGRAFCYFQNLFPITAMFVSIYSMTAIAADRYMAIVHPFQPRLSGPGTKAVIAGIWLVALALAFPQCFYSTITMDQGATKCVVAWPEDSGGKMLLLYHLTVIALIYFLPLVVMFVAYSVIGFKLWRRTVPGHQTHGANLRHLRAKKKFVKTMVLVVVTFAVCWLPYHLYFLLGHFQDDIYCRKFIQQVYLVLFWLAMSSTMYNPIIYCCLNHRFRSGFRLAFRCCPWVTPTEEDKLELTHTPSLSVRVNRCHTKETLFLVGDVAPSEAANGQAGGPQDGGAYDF
Experimental: NK2 In Vitro Functional Assay (Test D)
The ability of a Compound of the invention to antagonize the action of the agonist [β-ala^8] […] Male New Zealand white rabbits are euthanized via i.v. injection into an ear vein with 60 mg/kg Nembutal (50 mg/mL). Preceding the Nembutal into the vein is Heparin (1000 units/mL) at 0.0025 mL/kg for anticoagulant purposes. The chest cavity is opened from the top of the rib cage to the stemum and a small incision is made into the heart so that the left and right pulmonary arteries can be cannulated with polyethylene tubing (PE260 and PE190 respectively). […] Responses are measured on a Grass polygraph via Grass FT-03 transducers and the electrical signals (data) acquired using a Mi^2 software/hardware system for subsequent conversion to measures of contraction. […]
For non-competitive antagonists, the percent inhibition of contraction is determined at a given concentration of the antagonist Percent inhibition is determined when a tested Compound produces a statistically significant (p<0.05) reduction of the total contraction which is calculated using the total contraction as a percent of the control value. Potencies of competitive Compounds are determined by calculating the apparent dissociation constants (KB) for each concentration tested using the standard equation: […]

NK1 receptors = biological target: T3, NK1 receptors (Cavia porcellus, UniProt P30547); assay: NK1 In Vivo Functional Assay (Test E), agonist-induced bronchoconstriction in anesthetized guinea pigs; set-up: species or system guinea pig; conditions: 120 minutes prior to agonist ASMSP, Dose Ratio of ED50 in presence/absence of antagonist
T3 construct: from tissue; host or cells: whole anesthetized guinea pig (airways)
Experimental: NK1 and NK2 In Vivo Functional Assay (Test E)
Exp. Ther., 1993, Vol 267(3), pp 1168-1175. The assay is carried out as follows.
Compounds are tested in anesthetized guinea pigs pretreated with i.v. indomethacin (10 mg/kg, 20 min.), propranolol (0.5 mg/kg, 15 min.), and thiorphan (10 mg/kg, 10 min).
Antagonists or vehicle are administered i.v. and orally, 30 and 120 minutes prior to increasing concentrations of agonist, respectively. The agonists used in these studies are ASMSP (Ac-[Arg^6,Sar^9,Met(O2)^11]-SP(6-11)) and BANK (β-ala-8 NKA4-10).
Administered i.v., ASMSP is selective for NK1 receptors, and BANK is selective for NK2 receptors. Maximum response is defined as zero conductance (GL, 1/Rp). ED50 values are calculated (the dose of agonist resulting in a reduction of GL to 50% of baseline), and converted to the negative logarithm (−logED50). The ED50 values, obtained in the presence (P) and absence (A) of antagonist, are used to calculate a Dose Ratio (P/A), an expression of potency. Data are expressed as mean±SEM and statistical differences were determined using ANOVA/Tukey-Kramer and Student's t-test , with p<0.05 considered statistically significant.

T1 sequence (G1SEI7 1-407): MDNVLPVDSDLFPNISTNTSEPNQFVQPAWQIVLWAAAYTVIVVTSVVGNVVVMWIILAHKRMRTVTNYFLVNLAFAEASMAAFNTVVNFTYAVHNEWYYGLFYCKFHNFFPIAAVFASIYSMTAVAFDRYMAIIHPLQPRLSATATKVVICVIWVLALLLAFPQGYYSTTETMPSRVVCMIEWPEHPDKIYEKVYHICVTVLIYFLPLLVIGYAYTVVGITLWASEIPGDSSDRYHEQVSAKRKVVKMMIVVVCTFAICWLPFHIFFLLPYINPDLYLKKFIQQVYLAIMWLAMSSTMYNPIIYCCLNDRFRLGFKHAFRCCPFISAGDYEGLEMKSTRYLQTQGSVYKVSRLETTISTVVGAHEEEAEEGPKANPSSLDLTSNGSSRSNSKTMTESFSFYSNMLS
T3 sequence (P30547 whole entry): as the sequence (G1SEI7 1-407) above, with S176G, E186S, G329A, L342F, E368D, A369P, N376T, M395V, F399S counted along it

inhibition at 0.01 µM (NK1; inhibition of relaxation at 10^−8 M) [%]	Kb (NK2) [nM]	Oral Activity (Test E) NK1 P/A (NK1 receptors)	Kb (NK1; -log molar KB, read-out: Rabbit Pulmonary Artery NK1 pKb (Test C) (converted)) [nM]	SMILES
74	79.4	454		COc1c(C#N)cc2c(c1C(=O)N(C)C[C@@H](CCN1CCC(c3ccccc3[S@+](C)[O-])CC1)c1ccc(Cl)c(Cl)c1)CCCC2 [Example 5, N-[(S)-2-(3,4-Dichlorophenyl)-4-[4-[(S)-2-methylsulfinylphenyl]-1-piperidinyl]butyl]-N-methyl-3-cyano-2-methoxy-5,6,7,8-tetrahydro-1-naphthamide]
	25.1	147	5.01	CN(C[C@@H](CCN1CCC(c2ccccc2[S@+](C)[O-])CC1)c1ccc(Cl)c(Cl)c1)C(=O)c1cc(C#N)cc2c1CCCC2 [Example 6, N-[2-(S)-(3,4-Dichlorophenyl)4-[-4-[(S)-2-(methylsulfinyl)phenyl]-1-piperidinyl]butyl]-N-methyl-3-cyano-5,6,7.8-tetrahydro-1-naphthamide]
